Assay results as given in the CheMixHub ionic liquid set.
Several values for one entry are separate records, joined by “and”; a condition that tells them apart may be missing. Identical values can stand only once.

Assay: xn = mol fraction of the nth substance listed

N[C@@H](Cc1c[nH]cn1)C(=O)O + CCCCCCCCCCCC[N+](C)(C)C.[Br-] + O
viscosity [mPa·s], 101 kPa
Conditions | 293.15 K | 298.15 K | 303.15 K | 308.15 K | 313.15 K
x1 = 0.0001801, x2 = 0.0001083 | 1.03 | 0.904 | 0.816 | 0.738 | 0.668
x1 = 0.0001801, x2 = 0.0001624 | 1.033 | 0.908 | 0.816 | 0.741 | 0.669
x1 = 0.0001801, x2 = 0.0002165 | 1.035 | 0.909 | 0.821 | 0.745 | 0.67
x1 = 0.0001801, x2 = 0.0002706 | 1.038 | 0.918 | 0.823 | 0.748 | 0.672
x1 = 0.0001801, x2 = 0.0003247 | 1.043 | 0.925 | 0.827 | 0.751 | 0.674
x1 = 0.0001801, x2 = 0.0003788 | 1.048 | 0.927 | 0.839 | 0.753 | 0.676
x1 = 0.0001801, x2 = 0.0004329 | 1.056 | 0.931 | 0.843 | 0.756 | 0.68
x1 = 0.0001801, x2 = 0.000487 | 1.06 | 0.935 | 0.849 | 0.758 | 0.685
x1 = 0.0001801, x2 = 0.000541 | 1.062 | 0.935 | 0.851 | 0.76 | 0.689
x1 = 0.0001802, x2 = 5.413e-05 | 1.027 | 0.901 | 0.815 | 0.736 | 0.667
x1 = 0.0008997, x2 = 0.000544 | 1.041 | 0.906 | 0.823 | 0.737 | 0.651
x1 = 0.0008998, x2 = 0.0003809 | 1.032 | 0.891 | 0.808 | 0.728 | 0.646
x1 = 0.0008998, x2 = 0.0004352 | 1.035 | 0.894 | 0.812 | 0.732 | 0.647
x1 = 0.0008998, x2 = 0.0004896 | 1.038 | 0.9 | 0.818 | 0.734 | 0.649
x1 = 0.0008999, x2 = 0.0002721 | 1.029 | 0.885 | 0.803 | 0.724 | 0.644
x1 = 0.0008999, x2 = 0.0003265 | 1.03 | 0.888 | 0.806 | 0.727 | 0.645
x1 = 0.0009, x2 = 0.0001633 | 1.025 | 0.879 | 0.8 | 0.722 | 0.641
x1 = 0.0009, x2 = 0.0002177 | 1.027 | 0.881 | 0.802 | 0.722 | 0.643
x1 = 0.0009001, x2 = 5.443e-05 | 1.02 | 0.874 | 0.796 | 0.721 | 0.64
x1 = 0.0009001, x2 = 0.0001089 | 1.022 | 0.876 | 0.799 | 0.721 | 0.64
x1 = 0.001798, x2 = 0.0001644 | 1.065 | 0.915 | 0.85 | 0.756 | 0.685
x1 = 0.001798, x2 = 0.0002191 | 1.067 | 0.916 | 0.854 | 0.759 | 0.688
x1 = 0.001798, x2 = 0.0002739 | 1.068 | 0.919 | 0.858 | 0.76 | 0.691
x1 = 0.001798, x2 = 0.0003287 | 1.07 | 0.92 | 0.862 | 0.764 | 0.693
x1 = 0.001798, x2 = 0.0003835 | 1.072 | 0.923 | 0.867 | 0.771 | 0.696
x1 = 0.001798, x2 = 0.0004382 | 1.079 | 0.927 | 0.87 | 0.776 | 0.701
x1 = 0.001798, x2 = 0.000493 | 1.083 | 0.931 | 0.876 | 0.781 | 0.706
x1 = 0.001798, x2 = 0.0005477 | 1.089 | 0.939 | 0.881 | 0.786 | 0.709
x1 = 0.001799, x2 = 5.48e-05 | 1.061 | 0.908 | 0.842 | 0.751 | 0.68
x1 = 0.001799, x2 = 0.0001096 | 1.064 | 0.912 | 0.846 | 0.755 | 0.683

CC[n+]1ccn(C)c1.CO[PH](=O)[O-] + CS(C)=O
298.1 K, 100 kPa
Conditions | electrical conductivity
x1 = 0.006 | 0.01 S/m
x1 = 0.01 | 0.13 S/m
x1 = 0.017 | 0.37 S/m and 0.45 S/m
x1 = 0.025 | 0.51 S/m and 0.68 S/m
x1 = 0.044 | 0.79 S/m
x1 = 0.059 | 0.93 S/m
x1 = 0.078 | 1.05 S/m
x1 = 0.123 | 1.15 S/m
x1 = 0.188 | 1.19 S/m
x1 = 0.267 | 1.13 S/m
x1 = 0.335 | 1.03 S/m
x1 = 0.453 | 0.88 S/m
x1 = 0.585 | 0.75 S/m
x1 = 0.763 | 0.59 S/m
x1 = 1 | 0.44 S/m

CCCCCC[N+]1(C)CCCC1.O=S(=O)([N-]S(=O)(=O)C(F)(F)F)C(F)(F)F + Cc1ccccc1
100 kPa
Conditions | viscosity [mPa·s]
293.15 K, x2 = 0.3938 | 37.27
293.15 K, x2 = 0.7993 | 4.124
303.15 K, x2 = 0.5961 | 11.17
308.15 K, x2 = 0.29 | 30.33
308.15 K, x2 = 0.7993 | 3.15
313.15 K, x2 = 0 | 51

CC(=O)[O-].CCC[N+]1(C)CCN(C)CC1 + CC#N
Conditions | electrical conductivity [S/m]
298 K, 101 kPa, x2 = 0.791 | 1.76

CCCCCCCC[P+](CC)(CC)CC.Cc1ncc([N+](=O)[O-])[n-]1 + COCCOCCOCCOCCOC
viscosity [mPa·s], 100 kPa
Conditions | 278.15 K | 283.15 K | 288.15 K | 293.15 K | 298.15 K | 303.15 K | 308.15 K | 313.15 K | 318.15 K | 323.15 K
x2 = 0 | 3660 | 2240 | 1410 | 920 | 623 | 435 | 313 | 231 | 174 | 135
x2 = 0.036 | 2730 | 1700 | 1090 | 722 | 495 | 350 | 255 | 189 | 145 | 113
x2 = 0.067 | 1990 | 1270 | 829 | 559 | 390 | 280 | 206 | 155 | 120 | 95
x2 = 0.115 | 1470 | 955 | 636 | 438 | 310 | 227 | 170 | 130 | 101 | 81
x2 = 0.233 | 651 | 446 | 311 | 223 | 166 | 126 | 98 | 78 | 62 | –
x2 = 0.3 | 375 | 262 | 187 | 137 | 103 | 80 | 64 | 51 | – | –
x2 = 0.399 | 200 | 145 | 107 | 81 | 64 | 50 | – | – | – | –
x2 = 0.5 | 113 | 86 | 66 | 51 | – | – | – | – | – | –
x2 = 0.598 | 62 | – | – | – | – | – | – | – | – | –

CCO + CC[n+]1ccn(C)c1.N#C[S-]
101 kPa, x2 = 0
Conditions | viscosity [mPa·s]
293.15 K | 1.18
303.15 K | 0.98

CCCCCC[n+]1ccn(C)c1C.O=S(=O)([N-]S(=O)(=O)C(F)(F)F)C(F)(F)F + COCCOCCOCCOCCOC
viscosity [mPa·s], 100 kPa
Conditions | 293.15 K | 298.15 K | 308.15 K
x2 = 0 | – | 129 | –
x2 = 0.102 | 135 | 103 | 64
x2 = 0.306 | 66 | 51 | –

CCCCCCC(O)CO (centres undefined) + CCCCCCCC[N+](CCCCCCCC)(CCCCCCCC)CCCCCCCC.[Br-] + [Cl-].[Cl-].[Co+2]
Conditions | viscosity [mPa·s]
296.1 K, 101.3 kPa, x2 = 0.4, x3 = 0.2 | 27000

CCCC[N+](CCCC)(CCCC)Cc1ccccc1.[Cl-] + O=C([O-])C1=NN(c2ccc(S(=O)(=O)[O-])cc2)C(=O)C1N=Nc1ccc(S(=O)(=O)[O-])cc1.[Na+].[Na+].[Na+] + O
electrical conductivity [S/m], 101.3 kPa, frequency 0.001 MHz
Conditions | 298.15 K | 308.15 K | 318.15 K
x2 = 0, x1 = 1.802e-05 | 0.0104 | 0.0139 | 0.0173
x2 = 0, x1 = 5.406e-05 | 0.0231 | 0.0284 | 0.0345
x2 = 0, x1 = 9.009e-05 | 0.0367 | 0.0457 | 0.0546

viscosity [mPa·s], 101.3 kPa
Conditions | 298.15 K | 308.15 K | 318.15 K
x2 = 0, x1 = 1.802e-05 | 0.906 | 0.775 | 0.643
x2 = 0, x1 = 5.406e-05 | 0.923 | 0.793 | 0.659
x2 = 0, x1 = 9.009e-05 | 0.942 | – | –

CCO + C[C@H](N)C(=O)[O-].C[N+](C)(C)CCO
100 kPa, x2 = 0
Conditions | viscosity [mPa·s]
288.13 K | 1.15
289.34 K | 1.12
290.55 K | 1.1
291.74 K | 1.06
292.92 K | 1.03
294.1 K | 1.01
295.28 K | 0.98
296.45 K | 0.96
297.63 K | 0.93
298.8 K | 0.9
299.98 K | 0.88
301.16 K | 0.85
302.33 K | 0.82
303.51 K | 0.8
304.68 K | 0.77
305.86 K | 0.73
307.04 K | 0.71
308.21 K | 0.68

CCC=C[n+]1ccn(C)c1C.O=[N+]([O-])c1cn[n-]c1 + COCCOCCOCCOCCOC
100 kPa
Conditions | viscosity [mPa·s]
278.15 K, x1 = 0.601 | 267
278.15 K, x1 = 0.952 | 4300
283.15 K, x1 = 0.9 | 1510
288.15 K, x1 = 0.9 | 864
288.15 K, x1 = 0.952 | 1210
293.15 K, x1 = 0.601 | 87
298.15 K, x1 = 0.701 | 121
298.15 K, x1 = 0.952 | 439
303.15 K, x1 = 0.801 | 138
313.15 K, x1 = 0.9 | 117
323.15 K, x1 = 0.952 | 81

O=S(=O)([N-]S(=O)(=O)C(F)(F)C(F)(F)F)C(F)(F)F.[Li+] + O=S(=O)([O-])C(F)(F)F.[Li+] + O
101 kPa
Conditions | electrical conductivity, x1 = 0.1527, x2 = 0.1527 [S/m] | electrical conductivity, x1 = 0.2128, x2 = 0.08265 | electrical conductivity, x1 = 0.2128, x2 = 0.1527 [S/m] | electrical conductivity, x1 = 0.2551, x2 = 0.08265 | electrical conductivity, x1 = 0.2649, x2 = 0 [S/m] | electrical conductivity, x1 = 0.3106, x2 = 0.1527 [S/m] | viscosity, x1 = 0.2128, x2 = 0.08265 [mPa·s] | viscosity, x1 = 0.2551, x2 = 0.08265 [mPa·s] | viscosity, x1 = 0.2649, x2 = 0 [mPa·s]
283 K | – | 0.39 S/m | – | 0.195 S/m | 0.36 | – | 186 | 406 | 255
293 K | – | 0.57 S/m | – | 0.298 S/m | 0.531 | – | 110 | 228 | 145
298.1 K | 0.83 | 0.675 S/m and 0.68 S/m | 0.41 | 0.362 S/m and 0.37 S/m | 0.646 | 0.16 | 87 | 177 | 114
303 K | – | 0.788 S/m | – | 0.433 S/m | 0.762 | – | 70.9 | 141 | 89.8
313 K | – | 1.05 S/m | – | 0.599 S/m | 1.02 | – | 48.4 | 90.1 | 58.8
323 K | – | 1.36 S/m | – | 0.791 S/m | 1.33 | – | 33.9 | 61.6 | 40.2
333 K | – | 1.7 S/m | – | 1.02 S/m | 1.67 | – | 24.8 | 43.2 | 29.1
